In patent publication EP1849783A1, “Octahydropentalene-substituted pyrazoline compounds, their preparation and use as medicaments” (LABORATORIOS DEL DR. ESTEVE, S.A., priority 2006, dated 2007):
Counter-ions that a name gives are not always drawn.

Legend:
cannabinoid receptors = test: Mouse tetrad model, antagonistic activity against Win 55212-2; assay type: in vivo, Male NMRI mice; conditions: against Win 55212-2 (1.25 mg/kg intravenous), substance injected 5 minutes before the agonist, mice
From the text: Substances with affinity for cannabinoid receptors are known to produce a wide range of pharmacological effects. It is also known that intravenous administration of a substance with affinity for cannabinoid receptors in mice produces analgesia , hypothermia, sedation and catalepsy. Individually, none of these effects can be considered as proof that a tested substance has affinity for cannabinoid-receptors, since all of these effects are common for various classes of centrally active agents. However, substances, which show all of these effects, i.e. substances that are active in this so-called tetrad model are considered to have affinity for the cannabinoid receptors. It has further been shown that cannabinoid receptor antagonists are higly effective in blocking the effects of a cannabinoid agonist in the mouse tetrad model.
The tetrad model is described, for example, in the publication of A. C. Howlett et al, International Union of Pharmacology XXVII. Classification of Cannabinoid Receptors, Pharmacol Rev 54, 161-202, 2002 and David R. Compton et al., "In-vivo Characterization of a Specific Cannabinoid Receptor Antagonist (SR141716A) Inhibition of Tetrahydrocannbinol- induced Responses and Apparent Agonist Activity", J. Pharmacol. Exp. Ther. 277 , 2, 586-594, 1996. The corresponding parts of the description are hereby incorporated by reference. […]
Before testing in the behavioral procedures given below, mice are acclimatized to the experimental setting. Pre-Treatment control values are determined for analgesia hot plate latency (in seconds), rectal temperature, sedation and catalepsy.
In order to determine the agonistic activty of the substance to be tested, the mice are injected intravenously with the substance to be tested or the vehicle alone. 15 minutes after injection, latency in hot plate analgesia is measured. Rectal temperature, sedation and catalepsy are measured 20 minutes after injection.
In order to determine the antagonistic activity the identical procedure is used as for the determination of the agonistic effects, but with the difference that the substance to be evaluated for its antagonistic activity is injectected 5 minutes before the intravenous injection of 1.25 mg/kg Win-55,212 a known cannabinoid-receptor agonist.
The hot plate analgesia is determined according to the method described in Woolfe D. et al. "The evaluation of analgesic action of pethidine hydrochloride (Demerol)", J. Pharmacol. Exp. Ther. 80, 300-307,1944. […]
The mice are placed on a hot plate (Harvard Analgesimeter) at 55 ± 0.5 °C until they show a painful sensation by licking their paws or jumping and the time for these sensations to occur is recorded. This reading is considered the basal value (B). […]

[1] = target: T1, transfected human CB1 receptors (Homo sapiens, UniProt P21554); test: in-vitro determination of affinity to CB1-Receptor (radioligand binding); conditions: transfected human CB1 receptors of Receptor Biology, Inc.; radioligand [^3H]-CP55940; read-out: CB1-Receptor Radiologand :[^3H]-CP55940 IC50
T1 construct: purchased Receptor Biology, Inc
Method: The in-vitro determination of the affinity of the inventive quaternary ammonium salts of substituted pyrazoline compounds to CB1/CB2-Rezeptors is carried out as described in the publication of Ruth A. Ross, Heather C. Brockie et al., "Agonist-inverse agonist characterization at CB1 and CB2 cannabinoid receptors of L-759633, L759656 and AM630", British Journal of Pharmacology, 126, 665-672, (1999), whereby the transfected human CB1 and CB2 receptors of Receptor Biology, Inc. are used. The radioligand used for both receptors is [^3H]-CP55940. The respective parts of the description are hereby incorporated by reference and forms part of the present disclosure.

T1 sequence (P21554 whole entry): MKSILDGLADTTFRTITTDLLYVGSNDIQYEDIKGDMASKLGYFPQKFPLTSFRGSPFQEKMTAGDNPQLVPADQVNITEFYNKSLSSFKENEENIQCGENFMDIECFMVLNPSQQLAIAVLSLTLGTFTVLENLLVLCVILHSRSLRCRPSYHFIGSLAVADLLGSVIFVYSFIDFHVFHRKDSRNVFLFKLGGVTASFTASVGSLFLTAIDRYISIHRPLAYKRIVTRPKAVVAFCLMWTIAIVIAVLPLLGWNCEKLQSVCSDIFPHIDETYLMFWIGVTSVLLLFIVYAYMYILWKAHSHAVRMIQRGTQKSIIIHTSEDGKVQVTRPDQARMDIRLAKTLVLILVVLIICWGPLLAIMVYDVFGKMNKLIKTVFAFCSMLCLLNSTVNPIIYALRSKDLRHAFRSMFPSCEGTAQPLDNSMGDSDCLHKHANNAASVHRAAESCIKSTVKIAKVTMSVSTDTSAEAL

O=C(NN1CC2CCCC2C1)C1=NN(c2ccc(Cl)cc2Cl)C(c2ccc(Cl)cc2)C1 (stereo not shown) [1 (HCl)]
Antagonistic Effect in (%) (cannabinoid receptors; 1.25 mg/kg): 117 ± 3% | IC50 [1]: 70.8 nM

O=C(NN1CC2CCCC2C1)C1=NN(c2ccc(Cl)cc2Cl)C(c2ccc(Cl)cc2)C1 (stereo not shown) [Example 1, 5-(4-chlorophenyl)-1-(2,4-dichlorophenyl)-N-(hexahydrocyclopenta[c]pyrrol-2(1H)-yl)-4,5-dihydro-1H-pyrazole-3-carboxamide]
Antagonistic Effect in (%) (cannabinoid receptors; 1.25 mg/kg): 122 ± 4% | IC50 [1]: 12.6 nM

O=C(NN1CC2CCCC2C1)C1=NN(c2ccc(Cl)cc2Cl)[C@@H](c2ccc(Cl)cc2)C1 (stereo partly drawn) [Example 2, (R)-5-(4-chlorophenyl)-1-(2,4-dichlorophenyl)-N-(hexahydrocyclopenta[c]pyrrol-2(1H)-yl)-4,5-dihydro-1H-pyrazole-3-carboxamide]
Antagonistic Effect in (%) (cannabinoid receptors): 125.9% | IC50 [1]: 15.8 nM

O=C(NN1CC2CCCC2C1)C1=NN(c2ccc(Cl)cc2Cl)C(c2ccc(Br)cc2)C1 (stereo not shown) [Example 4, 5-(4-bromophenyl)-1-(2,4-dichlorophenyl)-N-(hexahydrocyclopenta[c]pyrrol-2(1H)-yl)-4,5-dihydro-1H-pyrazole-3-carboxamide]
Antagonistic Effect in (%) (cannabinoid receptors): 121 ± 4%
